The subject of test [1] is endothelial lumen of C3Asub28/TIME, MDA-MB-231/TIME, THLE-3/TIME microenvironments. Briefly: Vessel permeability of multi tissue-on-a-chip microenvironments. Format: cell-based, human. The note with it: TNFα treated TIME monoculture vs TIME monoculture, this study.
Protocol: Transport measurements of varying particle sizes in the multi tissue-on-a-chip microenvironment were conducted for two different scenarios: single microenvironment analysis and microenvironments connected in series to investigate the influence of their interactions and interdependent transport kinetics. When considering only a single microenvironment transport, particles were delivered through the vessel of the microenvironment of interest and transport through the vessel and into the surrounding ECM was measured subsequently and spatially. In these tests, 5 different platform configurations was used: acellular with no cells in the ECM and no cells in the vessel, TIME monoculture consisting only endothelial cells lining the vessel without cells in the ECM, and then vascularized microenvironments denoted as cells in the ECM/cells in the vessel: MDA-MB-231/TIME, C3Asub28/TIME, and THLE-3/TIME microenvironments. […]
Therefore, endothelial porosity was determined using fluorescence microscopy images of mKate tagged endothelial cells. […] The effect of vessel and ECM porosities and particle size on transport were quantified using two methods, permeability coefficient and intensity profiles of the particles in the vessel and ECM. […] Obtained images were exported to Matlab to quantify intensity readings at each time step. For the first method, permeability coefficient was calculated using Equation 8
Test [2] concerns TIME monoculture endothelium. Description: Porosity of vasculature (vessel confluence, confocal). Type of test: cell-based, human. As to conditions: 20 ng/ml perfused 24 hours.
Protocol: After embedding cells in collagen and successfully preconditioning endothelialized channels for 72 hours to establish a confluent, aligned endothelium, the effect of different co-culture conditions on the vessel confluence was studied as shown in FIG. 20.
To create a fully functional aligned endothelium along each channel within each compartment, TIME cell suspension in media (10×10^6 cells/ml) was introduced in the channel and underwent flow preconditioning for 3 days. Within the first 36 hours, wall shear stress was maintained at 0.01 dyn/cm^2 and followed with a linear increase of wall shear stress to 0.1 dyn/cm^2 for 1 hour and maintained at this value for the next 36 hours. […] For positive control samples, 20 ng/ml Tumor Necrosis Factor Alpha (TNFα, RnD Systems, MN) was perfused at 0.1 dyn/cm^2 for 24 hours after the preconditioning protocol before transport studies. To provide flow into the microfluidic platform, 0.5″ long 22G stainless steel needles were inserted though PDMS ports and partially into the collagen microchannels. Autoclaved Tygon silicon tubing ( 1/16″ ID, Saint Global, France) was connected to the inlet needle and a bubble trap, which is connected to a syringe pump that controls the flow rate. […]
Therefore, endothelial porosity was determined using fluorescence microscopy images of mKate tagged endothelial cells.
For test [3], the system named is endothelial lumen of C3Asub28/TIME, MDA-MB-231/TIME, THLE-3/TIME microenvironments. The note with it: reported by Zervantonakis et al.; cited from earlier work.

Where two headings read alike, the source gives them in different places.

With Tumor Necrosis Factor Alpha [TNFα], the “fold change of permeability between Control − and Control +” value in test [1] is on record as 1.59±0.13; in test [3], 1.79±0.27. In test [2], the “effect on vessel compared to Control −” value is given as “caused vessel permeabilization with significant pore openings”.

Source of the values: patent US20200115667A1, “VASCULARIZED MICROFLUIDIC PLATFORMS” (BOARD OF REGENTS, THE UNIVERSITY OF TEXAS SYSTEM, priority 2017, published 2020).
